From US20230234920A1, “Azirine Containing Compounds as Anti-Angiogenesis Agents and a Process for the Preparation Thereof” (COUNCIL OF SCIENTIFIC & INDUSTRIAL RESEARCH, priority 2020, published 2023)
Where two headings read alike, the source gives them in different places.

Tests used:
HUVECs = assay: Capillary-like tube formation assay (tubulogenesis); format: cell-based, human; conditions: for IC50: Homo sapiens, HUVEC, anti-angiogenic activity, read-out: IC50 value; for tubule formation: 6 h; for remarks: remark on IC50 versus sunitinib
Procedure: FIG. 2 represents effect of Compound 1 on capillary tube formation of HUVECs. Endothelial cells in Matrigel were incubated with ECM basal medium in the presence of compound 1 at the indicated concentrations for 6 h. Cell viability was assessed by Calcein-AM dye added few min. before the completion of 6 h. then photographs at 10×magnification were taken using an inverted microscope. The tubule length of HUVECs was quantified by Leica QWin software. Tubule network formation is expressed as a percentage of that vehicle (0.1% DMSO) treated cells (control).
FIG. 9 represents effect of racemic mixture (chiral isomer 1-1 and chiral isomer 2-1) of Compound 1 on capillary tube formation of HUVECs. Endothelial cells seeded in matrigel were incubated at the indicated concentrations of compound 1 racemic mixtures (1-1 and 2-1) with ECM basal medium for 6 h. Calcein-AM treatment was added to the ECs few minutes before completion of 6 h and pictures were captured using an inverted microscope at 10×magnification. The tubular structures of HUVECs were measured using Leica QWin software and tubulogenesis was expressed as a % of that vehicle (0.1% DMSO) treated cells (control) well.
HUVEC cells were incubated with or without sunitinib (20 nM) for 6 h at indicated concentrations of chiral isomers of Compound 1 (1-1 and 2-1). Photographs were taken using an inverted microscope at 10×magnification after Calcein-AM treatment to the ECs few minutes before completion of 6 h. The tubule length of HUVECs was quantified by Leica QWin software represented as a % of that vehicle (0.1% DMSO) treated cells (control) well.
To examine the effect of Compound 1 on angiogenesis, capillary tube formation assay was performed on regular or reduced growth factor Matrigel, taking VEGF (50 ng/mL) treated cells as a positive control and sunitinib (50 nM) as a negative control (FIG. 2). HUVECs seeded onto the matrigel with compound 1 at different concentrations of (10 μM, 5 μM, 1 μM, 800 nM, 500 nM, 250 nM, 125 nM, 75 nM, 50 nM, 25 nM and 10 nM) were incubated for six hours.
HUVECs (Human Umbilical Vein Endothelial Cells) were seeded onto the pre-coated matrigel (CORNING; 354230) in 96 wells plate at the rate of 11000 cells/well in incomplete ECM basal medium. Control group received vehicle, VEGF at 50 ng/mL as a positive and sunitinib at 50 nM as a negative control were used. Compound 1 at different dose concentrations (10 μM, 5 μM, 1 μM, 800 nM, 500 nM, 250 nM, 100 nM, 75 nM, 50 nM and 25 nM) were employed on seeded HUVECs in incomplete medium. Post 6 h of incubation Calcein-AM (Invitrogen) was added to all the respective groups and then the tubule pattern was observed and photographs were taken using an inverted fluorescent microscope (DM 6000, Leica Microsystems, USA). Relative tubule lengths were measured using Leica Q-Win software version 3.5.1. (Leica Microsystems, Switzerland).

Endothelin-1 receptor = assay: Endothelin-1 induced contraction of isolated artery rings; design: species or system mice; conditions: all concentrations of ET-1
From the text: FIG. 15 represents effect of Compound 1 on endothelin-1 concentration-response curves. (A) Concentration-response curve of endothelin-1 in isolated carotid arteries of vehicle-treated (Control) and Compound 1 treated mice. (B) Concentration-response curve of endothelin-1 in isolated carotid arteries of vehicle-treated (Control) and compound 3 along with compound 8 treated mice.
To test for the selectivity of the putative Endothelin-1 receptor, we applied endothelin-1 or Compound 1 in a concentration dependent manner to the […] to observe its contraction inhibition activity (FIG. 15).

[1] = Intramuscular pharmacokinetic study of chiral isomers 1 and 2; format: in vivo, male Sprague Dawley (SD) rats; conditions: IM 20 mg/kg
Procedure: In vivo pharmacokinetic study was performed in male Sprague Dawley (SD) rats (n=4). Intramuscular (IM) formulation of compound 1 Chiral 1 and 2 were prepared by individually dissolving accurately weighed quantity of compound 1, chiral isomers 1 and 2 (20 mg) in 1 mL of olive oil followed by vortexing for 2 min and sterilize through syringe filter. Blood samples were collected from the retro orbital plexus of rats under light ether anesthesia into microfuge tubes containing heparin as an anti-coagulant at 0.25, 0.5, 1, 3, 5, 7, 9, 24, 30, 48 and 72 hours post-dosing after intramuscular dose. Plasma sample was harvested by centrifuging the blood at 13000 rpm for 10 min on Sigma 1-15 K (Frankfurt, Germany) and stored frozen at −70±10° C. until bioanalysis. Each plasma sample (100 μl) was processed using protein precipitation method using 200 μl acetonitrile containing medicarpine as internal standard (I.S.) as protein precipitant, and 10 μl of the supernatant was injected for LC-MS/MS.

[2] = Intramuscular pharmacokinetic study of bulk compound 1 and chiral isomers; format: in vivo, male Sprague Dawley (SD) rats; conditions: IM 20 mg/kg
Procedure: In vivo pharmacokinetic study was performed in male Sprague Dawley (SD) rats (n=4). Intramuscular (IM) formulation of bulk of compound 1 as well as chiral isomer-1 and chiral isomer-2 was prepared by dissolving accurately weighed quantity of compound 1 (20 mg) in 1 mL of olive oil followed by vortexing for 2 min and sterilize through syringe filter. Blood samples were collected from the retro orbital plexus of rats under light ether anesthesia into microfuge tubes containing heparin as an anti-coagulant at 0.25, 0.5, 1, 3, 5, 7, 9, 24, 30, 48 and 72 hours post-dosing after intramuscular dose. Plasma sample was harvested by centrifuging the blood at 13000 rpm for 10 min on Sigma 1-15 K (Frankfurt, Germany) and stored frozen at −70±10° C. until bioanalysis. Each plasma sample (100 μl) was processed using protein precipitation method using 200 μl acetonitrile containing medicarpine as internal standard (I.S.) as protein precipitant, and 10 μl of the supernatant was injected for LC-MS/MS.

[3] = endothelial tubule network assay
[4] = 100 nM combined with sunitinib at 20 nM
[5] = male, Sprague-Dawley, rat, plasma, intramuscular, 0.25 h
[6] = male, Sprague-Dawley, rat, plasma, intramuscular, 0.5 h
[7] = male, Sprague-Dawley, rat, plasma, intramuscular, 1 h
[8] = male, Sprague-Dawley, rat, plasma, intramuscular, 3 h
[9] = male, Sprague-Dawley, rat, plasma, intramuscular, 5 h
[10] = male, Sprague-Dawley, rat, plasma, intramuscular, 7 h
[11] = male, Sprague-Dawley, rat, plasma, intramuscular, 9 h
[12] = male, Sprague-Dawley, rat, plasma, intramuscular, 24 h
[13] = male, Sprague-Dawley, rat, plasma, intramuscular, 30 h
[14] = male, Sprague-Dawley, rat, plasma, intramuscular, 48 h
[15] = male, Sprague-Dawley, rat, plasma, intramuscular, 72 h
[16] = male, Sprague-Dawley, rat, plasma, mean ± S.D., n = 4
[17] = male, Sprague-Dawley, rat, plasma, mean ± S.D., n = 4, read-out: AUC0-72
[18] = male, Sprague-Dawley, rat, plasma, mean ± S.D., n = 4, read-out: Cmax

CCOC(=O)C1N=C1CCc1ccc(Cl)cc1 (centres unmarked) [Compound 8, Ethyl 3-(4-chlorophenethyl)-2H-azirine-2-carboxylate]
IC50 (HUVECs; [3]): 500 nM
effect on ET-1 induced contraction of aortic rings (Endothelin-1 receptor): no effect

CCOC(=O)[C@H]1N=C1CCc1ccc(OC)cc1 [Chiral isomer (1-1)]
tubule formation (HUVECs; [4]): approximately 15%
tubule formation (HUVECs; 250 nM): 100%
tubule formation (HUVECs; 500 nM): 50%
tubule formation (HUVECs; 1 μM): 50%
concentration at 0.25 h [1, 5]: 1520 ± 360 ng/mL
concentration at 0.5 h [1, 6]: 2150 ± 830 ng/mL
concentration at 1 h [1, 7]: 3020 ± 1330 ng/mL
concentration at 3 h [1, 8]: 3170 ± 940 ng/mL
concentration at 5 h [1, 9]: 3570 ± 100 ng/mL
concentration at 7 h [1, 10]: 3580 ± 750 ng/mL
concentration at 9 h [1, 11]: 4810 ± 1560 ng/mL
concentration at 24 h [1, 12]: 1930 ± 380 ng/mL
concentration at 30 h [1, 13]: 1550 ± 360 ng/mL
concentration at 48 h [1, 14]: 545 ± 90 ng/mL
concentration at 72 h [1, 15]: 110 ± 40 ng/mL

CCCCCCCCCCCCC1=NC1C(=O)OCC (centres unmarked) [Compound 3, Ethyl 3-dodecyl-2H-azirine-2-carboxylate]
IC50 value (HUVECs; endothelial tubule network assay, result in words): Not Active
effect on ET-1 induced contraction of aortic rings (Endothelin-1 receptor): no effect

CCOC(=O)[C@H]1N=C1CCc1ccc(OC)cc1 [chiral isomer (2-1)]
tubule formation (HUVECs; [4]): around 30%
tubule formation (HUVECs; 250 nM): 100%
tubule formation (HUVECs; 500 nM): 50%
tubule formation (HUVECs; 500 nM, listed as isomer (2-1)): 50%
tubule formation (HUVECs; 1 μM): 50%
Tmax [1]: 3 h
Plasma concentration ([1]; 0.25 h): 6640 ± 2170 ng/mL
Plasma concentration ([1]; 0.5 h): 7440 ± 400 ng/mL
Plasma concentration ([1]; 1 h): 9270 ± 1960 ng/mL
Plasma concentration ([1]; 3 h): 10820 ± 1130 ng/mL
Plasma concentration ([1]; 5 h): 7500 ± 560 ng/mL
Plasma concentration ([1]; 7 h): 4300 ± 620 ng/mL
Plasma concentration ([1]; 9 h): 2000 ± 660 ng/mL
Plasma concentration ([1]; 24 h): 180 ± 13 ng/mL
Plasma concentration ([1]; 30 h): 130 ± 15 ng/mL
Plasma concentration ([1]; 48 h): 76 ± 4 ng/mL
Plasma concentration ([1]; 72 h): 44 ± 6 ng/mL
AUC0-72 ([1]; mean ± S.D., n = 4): 84.90 ± 6.02 µg·h/mL
AUC0-∞ ([1]; mean ± S.D., n = 4): 85.48 ± 6.1 µg·h/mL
Cl ([1]; mean ± S.D., n = 4): 3.83 ± 0.17 mL/min/kg
Cmax ([1]; mean ± S.D., n = 4): 10820 ± 1130 ng/mL
Vd ([1]; mean ± S.D., n = 4): 3.9 ± 0.24 L/kg
t1/2 ([1]; mean ± S.D., n = 4): 9.14 ± 0.12 h
Plasma concentration ([2]; 0.25 h): 409 ± 150 ng/mL
Plasma concentration ([2]; 0.5 h): 767.6 ± 50 ng/mL
Plasma concentration ([2]; 1 h): 557 ± 260 ng/mL
Plasma concentration ([2]; 3 h): 745 ± 120 ng/mL
Plasma concentration ([2]; 5 h): 762 ± 340 ng/mL
Plasma concentration ([2]; 7 h): 536 ± 170 ng/mL
Plasma concentration ([2]; 9 h): 463 ± 370 ng/mL
Plasma concentration ([2]; 24 h): 323 ± 40 ng/mL
Plasma concentration ([2]; 30 h): 246 ± 120 ng/mL
Plasma concentration ([2]; 48 h): 169.3 ± 100 ng/mL
Plasma concentration ([2]; 72 h): 44.3 ± 6 ng/mL
AUC0-72 ([2]; mean ± S.D., n = 4): 19.54 ± 3.260 µg·h/mL
AUC0-∞ ([2]; mean ± S.D., n = 4): 20.644 ± 2.977 µg·h/mL
Cl ([2]; mean ± S.D., n = 4): 16.4 ± 2.17 mL/min/kg
Cmax ([2]; mean ± S.D., n = 4): 945 ± 143 ng/mL
Tmax ([2]; mean ± S.D., n = 4): 3 ± 2 h
Vd ([2]; mean ± S.D., n = 4): 24.497 ± 6.339 L/kg
t1/2 ([2]; mean ± S.D., n = 4): 17.11 ± 2.454 h
MRT ([2]; mean ± S.D., n = 4, in h (unit assumed)): 22.671 ± 4.539

CCOC(=O)[C@H]1N=C1CCc1ccc(OC)cc1 (single isomer, unassigned) [Chiral isomer (1-1)]
Cl ([1]; mean ± S.D., n = 4): 2.67 ± 0.5 mL/min/kg
Vd ([1]; mean ± S.D., n = 4): 3.2 ± 0.84 L/kg
AUC(0-inf) [1, 16]: 121 ± 24.1 µg·h/mL
half-life [1, 16]: 13.3 ± 1.51 h
AUC(0-t) [1, 17]: 118 ± 24.8 µg·h/mL
Cmax [1, 18]: 4810 ± 1560 ng/mL
Tmax ([1]; male, Sprague-Dawley, rat, plasma, read-out: Tmax): 9 h
Cl ([2]; mean ± S.D., n = 4): 3.03 ± 0.415 mL/min/kg
Vd ([2]; mean ± S.D., n = 4): 4.273 ± 1.167 L/kg
concentration at 0.25 h [2, 5]: 1680 ± 1060 ng/mL
concentration at 0.5 h [2, 6]: 2090 ± 1650 ng/mL
concentration at 1 h [2, 7]: 2580 ± 1960 ng/mL
concentration at 3 h [2, 8]: 2560 ± 590 ng/mL
concentration at 5 h [2, 9]: 2460 ± 880 ng/mL
concentration at 7 h [2, 10]: 2120 ± 940 ng/mL
concentration at 9 h [2, 11]: 3440 ± 260 ng/mL
concentration at 24 h [2, 12]: 2470 ± 570 ng/mL
concentration at 30 h [2, 13]: 1730 ± 150 ng/mL
concentration at 48 h [2, 14]: 593 ± 220 ng/mL
concentration at 72 h [2, 15]: 109 ± 40 ng/mL
AUC(0-inf) [2, 16]: 111 ± 15 µg·h/mL
half-life [2, 16]: 16 ± 2.38 h
AUC(0-t) [2, 17]: 108 ± 15.9 µg·h/mL
Cmax [2, 18]: 3910 ± 847 ng/mL
MRT ([2]; male, Sprague-Dawley, rat, plasma, mean ± S.D., n = 4, read-out: MRT): 21 ± 0.463 h
Tmax ([2]; male, Sprague-Dawley, rat, plasma, mean ± S.D., n = 4, read-out: Tmax): 6.33 ± 4.62 h

CCOC(=O)C1N=C1CCCc1ccc2oc3ccccc3c2c1 (centres unmarked) [Compound 44, Ethyl 3-(3-(dibenzo[b,d]furan-2-yl)propyl)-2H-azirine-2-carboxylate]
IC50 (HUVECs; [3]): 250 nM

CCOC(=O)C1N=C1CCc1c2ccccc2cc2ccccc12 (centres unmarked) [Compound 33, Ethyl 3-(2-(anthracen-9-yl)ethyl)-2H-azirine-2-carboxylate]
IC50 (HUVECs; [3]): 50 nM
remarks (HUVECs): comparable to sunitinib

CCOC(=O)C1N=C1CCCCc1ccc2c(c1)CCO2 (centres unmarked) [Compound 42, Ethyl 3-(4-(2,3-dihydrobenzofuran-5-yl)butyl)-2H-azirine-2-carboxylate]
IC50 (HUVECs; [3]): 25 nM
remarks (HUVECs): comparable to sunitinib
